Results published in publication doi:10.1101/094631v2 (biorxiv, 2017).

Target: BIKE kinase domain (biotinylated) (Homo sapiens, UniProt Q9NSY1)
Assay: TR-FRET tracer displacement
Format: binding

BIKE kinase domain (biotinylated), sequence (Q9NSY1 38-345 limits assumed): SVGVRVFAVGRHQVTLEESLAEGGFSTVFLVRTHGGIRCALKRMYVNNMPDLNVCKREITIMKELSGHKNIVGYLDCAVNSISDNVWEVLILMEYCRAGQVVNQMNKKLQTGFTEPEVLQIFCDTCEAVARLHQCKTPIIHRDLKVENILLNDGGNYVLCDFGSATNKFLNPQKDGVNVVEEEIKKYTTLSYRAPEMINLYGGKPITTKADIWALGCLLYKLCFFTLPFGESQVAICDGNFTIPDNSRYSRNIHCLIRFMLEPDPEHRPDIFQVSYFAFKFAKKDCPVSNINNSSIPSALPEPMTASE

Compound: CC(C)C(=O)Nc1n[nH]c2cc(-c3cccc(NS(=O)(=O)C4CC4)c3)ccc12 [compound 2, N-(6-(3-(cyclopropanesulfonamido)phenyl)-1H-indazol-3-yl)isobutyramide]
- Ki: 3.1 µM
